Assay results from patent US6706663B2, “Herbicidal 3-heterocyclic substituted benzisothiazole and benzisoxazole compounds” (Wyeth, priority 2000, dated 2004).

How the values were obtained:
[1] = system: ABUTH (Abutilon theophrasti); test: Postemergence herbicidal evaluation; assay type: in vivo, Medic.
How it was run: (§1)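 Seedlings grown for about two weeks were sprayed postemergence and then kept under standard greenhouse care. Injury was rated visually 4–5 weeks after treatment on a 0–9 scale against untreated controls, and ratings from repeat tests were averaged.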

GALAP (Galium aparine) = test: Postemergence herbicidal evaluation; assay type: in vivo
How it was run: as §1

[2] = system: IPOHE (Ipomoea hederacea); test: Postemergence herbicidal evaluation; assay type: in vivo, (L.) Jacq.
How it was run: as §1

SETVI (Setaria viridis) [3] = test: Postemergence herbicidal evaluation; assay type: in vivo, (L.) Beau
How it was run: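 Postemergence foliar spray on two-week-old seedlings, dose equivalent to about 0.0040 to 1.000 kg/ha. Ratings use a 0-9 visual scale relative to control at four to five weeks.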

[4] = system: GLXMAW (Soybean, Williams); test: Postemergence herbicidal evaluation; assay type: in vivo, Glycine max, (L.) Merr. cv Williams
How it was run: as §1

[5] = system: TRZAWR (Wheat, Winter, cv Riband); test: Postemergence herbicidal evaluation; assay type: in vivo, Triticum aestivum
How it was run: as §1

[6] = system: ABUTH (Abutilon theophrasti); test: Preemergence herbicidal evaluation; assay type: in vivo, Medic.; details: rated 4-5 weeks after treatment
[7] = system: AMBEL (Ambrosia artemisifolia); test: Preemergence herbicidal evaluation; assay type: in vivo, L.; details: rated 4-5 weeks after treatment
How it was run: (§2)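 Seeds mixed with potting soil were planted atop about one inch of soil, then sprayed with test compound in aqueous acetone. Cups were kept in the greenhouse and rated visually 4–5 weeks after treatment on a 0–9 scale against untreated control.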

[8] = system: CASOB (Cassia obtusifolia); test: Preemergence herbicidal evaluation; assay type: in vivo, L.; details: rated 4-5 weeks after treatment
How it was run: as §2

[9] = system: CHEAL (Chenopodium album); test: Preemergence herbicidal evaluation; assay type: in vivo, L.; details: rated 4-5 weeks after treatment
How it was run: as §2

[10] = system: ECHCG (Echinochloa crus-galli); test: Preemergence herbicidal evaluation; assay type: in vivo, (L.) Beau; details: rated 4-5 weeks after treatment
How it was run: as §2

SETVI (Setaria viridis) [11] = test: Preemergence herbicidal evaluation; assay type: in vivo, (L.) Beau; details: rated 4-5 weeks after treatment
How it was run: as §2

ZEAMX (Corn, Field) = test: Preemergence herbicidal evaluation; assay type: in vivo, Zea mays, L.; details: rated 4-5 weeks after treatment
[12] = system: CYPSE (Cyperus serotinus); test: Flooded paddy, preemergence weed control; assay type: in vivo, Rottb.; details: rated 3-4 weeks after treatment, 0-9 rating scale
How it was run: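 Seeds or propagules were planted 0.5 cm deep in silt loam and flooded to 1.5–3 cm. Compounds in 50/50 v/v aqueous/acetone were pipetted into the flood water at about 0.0080 to 0.1250 kg/ha. After 3–4 weeks in the greenhouse, effect was rated visually on a 0–9 scale versus untreated control.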

[13] = system: MOOVA (Monochoria vaginalis); test: Flooded paddy, preemergence weed control; assay type: in vivo, Presl.; details: rated 3-4 weeks after treatment, 0-9 rating scale
How it was run: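 Under paddy conditions, seeds or vegetative propagules go into the top 0.5 cm of silt loam; the soil is then flooded to 1.5–3 cm and kept so. Treated pots stay in a greenhouse; response is rated 0-9 visually versus control.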

ORYSAT (Rice, Tebonnet) = test: Flooded paddy, post-transplant rice tolerance; assay type: in vivo, Oryza sativa, (L.) Tebonnet; details: flooded paddy, post-transplant rice, rated 3-4 weeks after treatment, 0-9 rating scale
How it was run: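 Scores (0-9) reflect visual injury relative to untreated plants in flooded silt loam. Each pot held two transplanted ten-day-old seedlings under 1.5 to 3 cm standing water in the greenhouse.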

## Cc1csc(-c2nsc3ccc(-n4c(=O)cc(C(F)(F)F)n(C)c4=O)cc23)n1 [Compound 7, 1-methyl-3-[3-(4-methyl-2-thiazolyl)-1,2-benzisothiazol-5-yl]-6-(trifluoromethyl)uracil]
[1]; rate 0.0320 kg/ha
  Postemergence herbicidal rating, ABUTH: 9.0
[1]; rate 0.0620 kg/ha
  Postemergence herbicidal rating, ABUTH: 9.0
[1]; rate 0.1250 kg/ha
  Postemergence herbicidal rating, ABUTH: 9.0
GALAP (Galium aparine); rate 0.0320 kg/ha
  Postemergence herbicidal rating, GALAP: 2.0
GALAP (Galium aparine); rate 0.0620 kg/ha
  Postemergence herbicidal rating, GALAP: 9.0
GALAP (Galium aparine); rate 0.1250 kg/ha
  Postemergence herbicidal rating, GALAP: 7.0
[2]; rate 0.0320 kg/ha
  Postemergence herbicidal rating, IPOHE: 2.0
[2]; rate 0.0620 kg/ha
  Postemergence herbicidal rating, IPOHE: 9.0
[2]; rate 0.1250 kg/ha
  Postemergence herbicidal rating, IPOHE: 9.0
SETVI (Setaria viridis) [3]; rate 0.0320 kg/ha
  Postemergence herbicidal rating, SETVI: 0.0
SETVI (Setaria viridis) [3]; rate 0.0620 kg/ha
  Postemergence herbicidal rating, SETVI: 0.0
SETVI (Setaria viridis) [3]; rate 0.1250 kg/ha
  Postemergence herbicidal rating, SETVI: 2.0
[4]; rate 0.0320 kg/ha
  Postemergence herbicidal rating, GLXMAW: 5.0
[4]; rate 0.0620 kg/ha
  Postemergence herbicidal rating, GLXMAW: 5.0
[4]; rate 0.1250 kg/ha
  Postemergence herbicidal rating, GLXMAW: 5.5
[5]; rate 0.0320 kg/ha
  Postemergence herbicidal rating, TRZAWR: 4.5
[5]; rate 0.0620 kg/ha
  Postemergence herbicidal rating, TRZAWR: 5.5
[5]; rate 0.1250 kg/ha
  Postemergence herbicidal rating, TRZAWR: 6.0
[6]; Rate 0.0620 kg/ha
  ABUTH preemergence herbicidal rating: 9.0
[6]; Rate 0.1250 kg/ha
  ABUTH preemergence herbicidal rating: 9.0
[6]; Rate 0.2500 kg/ha
  ABUTH preemergence herbicidal rating: 9.0
[7]; Rate 0.0620 kg/ha
  AMBEL preemergence herbicidal rating: 0.0
[7]; Rate 0.1250 kg/ha
  AMBEL preemergence herbicidal rating: 0.0
[7]; Rate 0.2500 kg/ha
  AMBEL preemergence herbicidal rating: 0.0
[8]; Rate 0.0620 kg/ha
  CASOB preemergence herbicidal rating: 0.0
[8]; Rate 0.1250 kg/ha
  CASOB preemergence herbicidal rating: 3.0
[8]; Rate 0.2500 kg/ha
  CASOB preemergence herbicidal rating: 9.0
[9]; Rate 0.0620 kg/ha
  CHEAL preemergence herbicidal rating: 9.0
[9]; Rate 0.1250 kg/ha
  CHEAL preemergence herbicidal rating: 9.0
[9]; Rate 0.2500 kg/ha
  CHEAL preemergence herbicidal rating: 9.0
[10]; Rate 0.0620 kg/ha
  ECHCG preemergence herbicidal rating: 0.0
[10]; Rate 0.1250 kg/ha
  ECHCG preemergence herbicidal rating: 3.0
[10]; Rate 0.2500 kg/ha
  ECHCG preemergence herbicidal rating: 3.0
SETVI (Setaria viridis) [11]; Rate 0.0620 kg/ha
  SETVI preemergence herbicidal rating: 9.0
SETVI (Setaria viridis) [11]; Rate 0.1250 kg/ha
  SETVI preemergence herbicidal rating: 9.0
SETVI (Setaria viridis) [11]; Rate 0.2500 kg/ha
  SETVI preemergence herbicidal rating: 9.0
ZEAMX (Corn, Field); Rate 0.0620 kg/ha
  ZEAMX preemergence herbicidal rating: 0.0
ZEAMX (Corn, Field); Rate 0.1250 kg/ha
  ZEAMX preemergence herbicidal rating: 4.0
ZEAMX (Corn, Field); Rate 0.2500 kg/ha
  ZEAMX preemergence herbicidal rating: 8.0
[12]; rate 0.0080 kg/ha
  herbicidal rating, CYPSE: 0.0
[12]; rate 0.0320 kg/ha
  herbicidal rating, CYPSE: 0.0
[12]; rate 0.1250 kg/ha
  herbicidal rating, CYPSE: 0.0
[13]; rate 0.0080 kg/ha
  herbicidal rating, MOOVA: 9.0
[13]; rate 0.0320 kg/ha
  herbicidal rating, MOOVA: 9.0
[13]; rate 0.1250 kg/ha
  herbicidal rating, MOOVA: 9.0
ORYSAT (Rice, Tebonnet); rate 0.0080 kg/ha
  herbicidal rating, ORYSAT (rice tolerance): 3.0
ORYSAT (Rice, Tebonnet); rate 0.0320 kg/ha
  herbicidal rating, ORYSAT (rice tolerance): 2.0
ORYSAT (Rice, Tebonnet); rate 0.1250 kg/ha
  herbicidal rating, ORYSAT (rice tolerance): 5.0

## C[C@@H]1OC(c2nsc3ccc(-n4c(=O)cc(C(F)(F)F)n(C)c4=O)cc23)O[C@@H]1C (stereo partly drawn) [Compound 47, 3-[3-[(4R,5S)-4,5-dimethyl-1,3-dioxolan-2-yl]-1,2-benzisothiazol-5-yl]-1-methyl-6-(trifluoromethyl)uracil]
[1]; rate 0.0320 kg/ha
  Postemergence herbicidal rating, ABUTH: 9.0
[1]; rate 0.0620 kg/ha
  Postemergence herbicidal rating, ABUTH: 9.0
GALAP (Galium aparine); rate 0.0320 kg/ha
  Postemergence herbicidal rating, GALAP: 9.0
GALAP (Galium aparine); rate 0.0620 kg/ha
  Postemergence herbicidal rating, GALAP: 9.0
[2]; rate 0.0320 kg/ha
  Postemergence herbicidal rating, IPOHE: 9.0
[2]; rate 0.0620 kg/ha
  Postemergence herbicidal rating, IPOHE: 9.0
SETVI (Setaria viridis) [3]; rate 0.0320 kg/ha
  Postemergence herbicidal rating, SETVI: 9.0
SETVI (Setaria viridis) [3]; rate 0.0620 kg/ha
  Postemergence herbicidal rating, SETVI: 9.0
[4]; rate 0.0320 kg/ha
  Postemergence herbicidal rating, GLXMAW: 7.5
[4]; rate 0.0620 kg/ha
  Postemergence herbicidal rating, GLXMAW: 8.5
[5]; rate 0.0320 kg/ha
  Postemergence herbicidal rating, TRZAWR: 5.0
[5]; rate 0.0620 kg/ha
  Postemergence herbicidal rating, TRZAWR: 6.0
[6]; Rate 0.0620 kg/ha
  Preemergence herbicidal rating ABUTH: 9.0
[6]; Rate 0.1250 kg/ha
  Preemergence herbicidal rating ABUTH: 9.0
[6]; Rate 0.2500 kg/ha
  Preemergence herbicidal rating ABUTH: 9.0
[7]; Rate 0.0620 kg/ha
  Preemergence herbicidal rating AMBEL: 9.0
[7]; Rate 0.1250 kg/ha
  Preemergence herbicidal rating AMBEL: 9.0
[7]; Rate 0.2500 kg/ha
  Preemergence herbicidal rating AMBEL: 9.0
[8]; Rate 0.0620 kg/ha
  Preemergence herbicidal rating CASOB: 4.5
[8]; Rate 0.1250 kg/ha
  Preemergence herbicidal rating CASOB: 7.5
[8]; Rate 0.2500 kg/ha
  Preemergence herbicidal rating CASOB: 9.0
[9]; Rate 0.0620 kg/ha
  Preemergence herbicidal rating CHEAL: 9.0
[9]; Rate 0.1250 kg/ha
  Preemergence herbicidal rating CHEAL: 9.0
[9]; Rate 0.2500 kg/ha
  Preemergence herbicidal rating CHEAL: 9.0
[10]; Rate 0.0620 kg/ha
  Preemergence herbicidal rating ECHCG: 9.0
[10]; Rate 0.1250 kg/ha
  Preemergence herbicidal rating ECHCG: 9.0
[10]; Rate 0.2500 kg/ha
  Preemergence herbicidal rating ECHCG: 9.0
SETVI (Setaria viridis) [11]; Rate 0.0620 kg/ha
  Preemergence herbicidal rating SETVI: 9.0
SETVI (Setaria viridis) [11]; Rate 0.1250 kg/ha
  Preemergence herbicidal rating SETVI: 8.5
SETVI (Setaria viridis) [11]; Rate 0.2500 kg/ha
  Preemergence herbicidal rating SETVI: 9.0
ZEAMX (Corn, Field); Rate 0.0620 kg/ha
  Preemergence herbicidal rating ZEAMX: 7.5
ZEAMX (Corn, Field); Rate 0.1250 kg/ha
  Preemergence herbicidal rating ZEAMX: 8.0
ZEAMX (Corn, Field); Rate 0.2500 kg/ha
  Preemergence herbicidal rating ZEAMX: 9.0
[12]; rate 0.0320 kg/ha
  herbicidal rating, CYPSE: 9.0
[12]; rate 0.1250 kg/ha
  herbicidal rating, CYPSE: 9.0
[13]; rate 0.0320 kg/ha
  herbicidal rating, MOOVA: 9.0
[13]; rate 0.1250 kg/ha
  herbicidal rating, MOOVA: 9.0
ORYSAT (Rice, Tebonnet); rate 0.0080 kg/ha
  herbicidal rating, ORYSAT (rice tolerance): 3.0
ORYSAT (Rice, Tebonnet); rate 0.0320 kg/ha
  herbicidal rating, ORYSAT (rice tolerance): 7.5
ORYSAT (Rice, Tebonnet); rate 0.1250 kg/ha
  herbicidal rating, ORYSAT (rice tolerance): 9.0
